37 compounds from US20120252853A1, “Positive allosteric modulators of nicotinic acetylcholine receptor” (H. Lundbeck A/S, priority 2011, published 2012) can be followed below.

The assay concerns the target human α7 receptor (Homo sapiens, UniProt P36544). Nature of the assay: α7 NNR flux assay (FDSS Ca assay). Particulars: positive allosteric modulation; rat GH4C1 cell line stably expressing human α7; acetylcholine 20 μM; % modulation relative to PNU-120596 set to 100%. The format is cell-based. The protocol: In this version of the assay, the human α7 receptor is stably expressed in the rat GH4C1 cell line. The assay was used to identify positive allosteric modulators (PAMs) of the α7 receptor. Activation of the channel was measured by loading cells with the calcium-sensitive fluorescent dye Calcium-4 (Assay kit from Molecular Devices), and then measuring real-time changes in fluorescence upon treatment with test compounds.
The cell line ChanClone GH4C1-nAChRalpha7 from Genionics was seeded from frozen stock in 384-well plates in culture media 2-3 days before experiment to form an approximately 80% confluent layer on the day of experiment.
The cell culture were split into “22.5 cm×22.5 cm”-plates with approximately 100×10^3 cells/cm^2. After four days incubation in a humidified incubator at 37° C. and 5% CO2, it had grown to an 80-90% confluent layer, and the cells were harvested.
Two or three days before the experiment the cells were seeded in 384 well plates from Greiner bio-one (781946, CELLCOAT, Poly-D-Lysine, black, μClear).
The cells were seeded in 384 well plates with 30 μL/well (30000 cells/well) while stirring the cell suspension or otherwise preventing the cells from precipitating. The plates were incubated at room temperature for 30-45 minutes. The plates were placed in incubator for two days (37° C. and 5% CO2).
The loading buffer was 5% v/v Calcium-4 Kit and 2.5 mM Probenecid in assay buffer.
Culture media were removed from the cell plates and 20 μL loading buffer was added in each well. The cell plates were placed in trays and incubated 90 minutes in the incubator (37° C.). Thereafter the plates were incubated 30 minutes at room temperature, still protected from light. Now the cell plates were ready to run in the Functional Drug Screening System (FDSS) The assay buffer was HBSS with 20 mM HEPES, pH 7.4 and 3 mM CaCl2.
200 nL 10 mM compound solution in DMSO was diluted in 50 μL assay buffer. The final test concentrations in the cell plates were 20-10-5-2.5-1.25-0.625-0.312-0.156-0.078-0.039 μM. Assay buffer and 3 μM PNU-120596 were used for control:
The agonist acetylcholine was added to a final concentration of 20 μM (˜EC100). In the FDSS7000 the Ex480-Em540 was measured with 1 second intervals. The baseline was made of 5 frames before addition of test compounds, and 95 frames more were made before addition of acetylcholine. The measurement stopped 30 frames after the 2nd addition. Raw data for each well were collected as “the maximum fluorescence count” in the interval 100-131 seconds and as “the average fluorescence count” in the interval 96-100 seconds. The positive allosteric modulation in the 2nd addition was the enhancement of agonist response with test compound compared to agonist alone.
Results were calculated as % modulation of test compound compared to the reference PNU-120596 set to 100%.

As usually defined, the EC50 is the concentration at which the effect is half-maximal. Low values mean an effect from little substance, high ones a need for much substance.

human α7 receptor, sequence (P36544 23-502): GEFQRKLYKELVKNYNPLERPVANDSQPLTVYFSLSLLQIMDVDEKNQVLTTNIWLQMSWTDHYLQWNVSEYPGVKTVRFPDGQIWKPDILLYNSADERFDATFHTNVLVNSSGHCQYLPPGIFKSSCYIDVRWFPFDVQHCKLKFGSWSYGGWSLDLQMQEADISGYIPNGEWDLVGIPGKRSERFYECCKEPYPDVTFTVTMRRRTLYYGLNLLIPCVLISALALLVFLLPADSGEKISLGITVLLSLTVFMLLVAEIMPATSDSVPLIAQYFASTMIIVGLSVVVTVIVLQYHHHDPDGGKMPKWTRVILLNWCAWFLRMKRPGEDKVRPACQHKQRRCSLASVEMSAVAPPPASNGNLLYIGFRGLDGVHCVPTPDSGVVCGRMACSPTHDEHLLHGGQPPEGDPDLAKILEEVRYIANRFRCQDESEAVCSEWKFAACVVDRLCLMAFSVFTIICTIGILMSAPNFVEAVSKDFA

In turn, `Cc1cc2cc(C(C)NC(=O)c3oncc3C)ccc2[nH]1` (racemic) [Compound 16, 4-methyl-N-[1-(2-methyl-1H-indol-5-yl)ethyl]isoxazole-5-carboxamide] returned a concentration giving a half-maximal response (EC50) of 11 µM.
For the compound `COc1cc(C(=O)NC(C)c2ccc3[nH]c(C)cc3c2)on1` (racemic) [Compound 18, 3-methoxy-N-[1-(2-methyl-1H-indol-5-yl)ethyl]isoxazole-5-carboxamide], it took 6.7 µM to reach a half-maximal effect (EC50). Against the preceding compound, the EC50 is about 1.6-fold lower.
`Cc1cc(C(=O)NC(C)c2ccc3[nH]c(C)cc3c2)on1` (racemic) [Compound 33, 3-methyl-N-[1-(2-methyl-1H-indol-5-yl)ethyl]isoxazole-5-carboxamide] came in with an EC50 of 2.63 µM.
With `Cc1cc(C(=O)NC(C)c2ccc3[nH]c(C(F)(F)F)cc3c2)on1` (single isomer, unassigned) [Compound 97, 3-methyl-N-[1-[2-(trifluoromethyl)-1H-indol-5-yl]ethyl]isoxazole-5-carboxamide], the 50% effective concentration (EC50) amounted to 5.2 µM. This EC50 lies about 2-fold higher than the previous one.
For the compound `Cc1cc2cc(CNC(=O)c3sc(C)nc3C)ccc2[nH]1` [Compound 2, 2,4-dimethyl-N-[(2-methyl-1H-indol-5-311)methyl]thiazole-5-carboxamide], a half-maximal response (EC50) required 9.8 µM.
Regarding `Cc1cc2cc(CNC(=O)c3ccc(Cl)s3)ccc2[nH]1` [Compound 3, 5-Chloro-thiophene-2-carboxylic acid (2-methyl-1H-indol-5-ylmethyl)-amide], a half-maximal response (EC50) required 0.13 µM.
Compound `Cc1cc2cc(CNC(=O)c3sccc3Cl)ccc2[nH]1` [Compound 4, 3-chloro-N-[(2-methyl-1H-indol-5-yl)methyl]thiophene-2-carboxamide] displayed a concentration for a half-maximal effect (EC50) of 2.9 µM.
`Cc1cc2cc(CNC(=O)c3cscn3)ccc2[nH]1` [Compound 5, N-[(2-methyl-1H-indol-5-yl)methyl]thiazole-4-carboxamide] showed an EC50 of 4.4 µM.
In the case of `Cc1cc2cc(CNC(=O)c3ccsc3)ccc2[nH]1` [Compound 6, N-[(2-methyl-1H-indol-5-yl)methyl]thiophene-3-carboxamide] it was 0.52 µM; in that of `Cc1cc2cc(CNC(=O)c3cc(C)oc3C)ccc2[nH]1` [Compound 7, 2,5-dimethyl-N-[(2-methyl-1H-indol-5-yl)methy]furan-3-carboxamide], 1.4 µM; in that of `Cc1cc2cc(CNC(=O)c3cc(C)on3)ccc2[nH]1` [Compound 8, 5-methyl-N-[(2-methyl-1H-indol-5-yl)methyl]isoxazole-3-carboxamide], 3.2 µM.
As for `Cc1cc2cc(CNC(=O)c3sccc3C)ccc2[nH]1` [Compound 9, 3-methyl-N-[(2-methyl-1H-indol-5-yl)methyl]thiophene-2-carboxamide], the figure is 1.8 µM; as for `Cc1cc2cc(CNC(=O)c3ccco3)ccc2[nH]1` [Compound 10, N-[(2-methyl-1H-indol-5-yl)methyl]furan-2-carboxamide], 4 µM.
In the case of `Cc1cc2cc(CNC(=O)c3ccoc3)ccc2[nH]1` [Compound 11, N-[(2-methyl-1H-indol-5-yl)methyl]furan-3-carboxamide] it was 2.4 µM; in that of `Cc1cc2cc(CNC(=O)c3cc(C)n(C)n3)ccc2[nH]1` [Compound 12, 1,5-dimethyl-N-[(2-methyl-1H-indol-5-yl)methyl]pyrazole-3-carboxamide], 9.1 µM; in that of `Cc1cc2cc(CNC(=O)c3cccs3)ccc2[nH]1` [Compound 13, N-[(2-methyl-1H-indol-5-yl)methyl]thiophene-2-carboxamide], 0.53 µM.
On to `Cc1cc2cc(CNC(=O)c3ccc[nH]3)ccc2[nH]1` [Compound 14, N-[(2-methyl-1H-indol-5-yl)methyl]-1H-pyrrole-2-carboxamide], for which the EC50 worked out at 7.4 µM.
In the case of `Cc1cc2cc(CNC(=O)c3oncc3C)ccc2[nH]1` [Compound 15, 4-methyl-N-[(2-methyl-1H-indol-5-yl)methyl]isoxazole-5-carboxamide], the EC50 was found to be 9.6 µM.
As for `Cc1cc(C(=O)NCc2ccc3[nH]cc(C)c3c2)on1` [Compound 17, 3-methyl-N-[(3-methyl-1H-indol-5-34)methyl]isoxazole-5-carboxamide], the figure is 11 µM.
The compound `COc1cc(C(=O)NCc2ccc3[nH]c(C)cc3c2)on1` [Compound 19, 3-methoxy-N-[(2-methyl-1H-indol-5-yl)methyl]isoxazole-5-carboxamide] returned an EC50 of 4.6 µM.
Compound `Cc1cc2cc(CNC(=O)c3nccs3)ccc2[nH]1` [Compound 20, N-[(2-methyl-1H-indol-5-yl)methyl]thiazole-2-carboxamide] yielded an EC50 of 3.3 µM.
As for `Cc1cc2cc(CNC(=O)c3ocnc3C)ccc2[nH]1` [Compound 22, 4-methyl-N-[(2-methyl-1H-indol-5-yl)methyl]oxazole-5-carboxamide], the figure is 7.2 µM; as for `Cc1cc(C(=O)NCc2cc(C)c3[nH]ccc3c2)on1` [Compound 23, 3-methyl-N-[(7-methyl-1H-indol-5-yl)methyl]isoxazole-5-carboxamide], 7.1 µM.
As for `Cc1cc2cc(CNC(=O)c3csc(C)n3)ccc2[nH]1` [Compound 25, 2-methyl-N-[(2-methyl-1H-indol-5-yl)methyl]thiazole-4-carboxamide], the figure is 4.7 µM.
`Cc1cc2cc(CNC(=O)c3ccno3)ccc2[nH]1` [Compound 26, N-[(2-methyl-1H-indol-5-yl)methyl]isoxazole-5-carboxamide] showed a half-maximal effective concentration (EC50) of 7.37 µM. This EC50 is about 1.6-fold higher than that of the compound before.
`Cc1cc2cc(CNC(=O)c3c(C)noc3C)ccc2[nH]1` [Compound 27, 3,5-dimethyl-N-[(2-methyl-1H-indol-5-yl)methyl]isoxazole-4-carboxamide] displayed a concentration for a half-maximal effect (EC50) of 0.44 µM. Compared with the last compound, the EC50 is about 17-fold lower.
In turn, `Cc1cc2cc(CNC(=O)c3cc(=O)n(C)[nH]3)ccc2[nH]1` [Compound 32, 2-methyl-N-[(2-methyl-1H-indol-5-yl)methyl]-3-oxo-1H-pyrazole-5-carboxamide] registered a concentration giving a half-maximal response (EC50) of 11 µM. Compared with the last compound, the EC50 is about 25-fold higher.
Turning to `Cc1cc2cc(CNC(=O)c3ccn(C)c3)ccc2[nH]1` [Compound 37, 1-methyl-N-[(2-methyl-1H-indol-5-yl)methyl]pyrrole-3-carboxamide], the EC50 was found to be 9.8 µM.
In turn, `Cc1cc(C(=O)NC(C)c2ccc3[nH]ccc3c2)on1` (stereo not shown) [Compound 38, N-[1-(1H-indol-5-yl)ethyl]-3-methyl-isoxazole-5-carboxamide] came in with a concentration for a half-maximal effect (EC50) of 5.9 µM.
As for `Cc1cc(C(=O)NCc2cc3cc[nH]c3cc2C)on1` [Compound 39, 3-methyl-N-[(6-methyl-1H-indol-5-yl)methyl]isoxazole-5-carboxamide], the figure is 9.1 µM; as for `Cc1cc(C(=O)NCc2ccc3[nH]c(C)c(C)c3c2)on1` [Compound 41, N-[(2,3-dimethyl-1H-indol-5-yl)methyl]-3-methyl-isoxazole-5-carboxamide], 7.7 µM; as for `Cc1cc2cc([C@@H](C)NC(=O)c3cnc(C)s3)ccc2[nH]1` [Compound 42, 2-methyl-N-[(1R)-1-(2-methyl-1H-indol-5-yl)ethyl]thiazole-5-carboxamide], 5.6 µM.
`CCn1cc(C(=O)N[C@H](C)c2ccc3[nH]c(C)cc3c2)cn1` [Compound 43, 1-ethyl-N-[(1R)-1-(2-methyl-1H-indol-5-yl)ethyl]pyrazole-4-carboxamide]: the EC50 amounted to 2.2 µM.
Regarding `Cc1cc2cc([C@@H](C)NC(=O)c3cnn(C)c3)ccc2[nH]1` [Compound 44, 1-methyl-N-[(1R)-1-(2-methyl-1H-indol-5-yl)ethyl]pyrazole-4-carboxamide], the half-maximal effective concentration (EC50) came out at 6.1 µM.
`Cc1cc(C(=O)N[C@@H](c2ccc3[nH]c(C)cc3c2)C(F)(F)F)on1` [Compound 45, 3-methyl-N-[(1S)-2,2,2-trifluoro-1-(2-methyl-1H-indol-5-yl)ethyl]isoxazole-5-carboxamide] gave an EC50 of 1.5 µM. Against the preceding compound, the EC50 is about 4.1-fold lower.
With `COCCn1cc(C(=O)N[C@H](C)c2ccc3[nH]c(C)cc3c2)cn1` [Compound 46, 1(2-methoxyethyl)-N-[(1R)-1-(2-methyl-1H-indol-5-yl)ethyl]pyrazole-4-carboxamide], the EC50 is 3.5 µM.
In turn, `Cc1cc2cc([C@@H](C)NC(=O)c3cnn(CCF)c3)ccc2[nH]1` [Compound 48, 1-(2-fluoroethyl)-N-[(1R)-1-(2-methyl-1H-indol-5-yl)ethyl]pyrazole-4-carboxamide] displayed an EC50 of 1.7 µM. Against the preceding compound, the EC50 is about 2.1-fold lower.
